Results: patent publication US20130158362A1 (INFACARE PHARMACEUTICAL CORPORATION, priority 2011, published 2013)

Tested on: total serum bilirubin (TSB)
Experiment: Phase 2b trial: total serum bilirubin (TSB), adjusted and unadjusted, change from baseline
Type: in vivo, human
Design: total serum bilirubin / total serum bilirubin, Delta (change from baseline) / Change from baseline of total serum bilirubin: unit not given here
Conditions: for change from baseline in unadjusted TSB, Mean (SD) / change from baseline in unadjusted TSB, Median / unadjusted TSB, Mean (SD) / unadjusted TSB, Median / change from baseline in adjusted TSB, LS mean (SEM) / change from baseline in adjusted TSB, LS mean difference versus placebo / change from baseline in unadjusted TSB, LS Mean (SEM) / change from baseline in unadjusted TSB, LS Mean Difference versus placebo / adjusted TSB, Mean (SD) / change from baseline in adjusted TSB, Mean (SD) / change from baseline in adjusted TSB, Median / change from baseline in adjusted TSB, LS mean difference versus placebo, MMRM / change from baseline in adjusted TSB, LS means (SEM), MMRM: ITT; for Change from baseline of total serum bilirubin: 4.5 mg/kg (N = 5); for change from baseline in adjusted TSB, LS mean difference versus placebo, MMRM / change from baseline in adjusted TSB, LS means (SEM), MMRM: observed case
Experimental: Three cohorts of subjects were recruited. This clinical study was designed to evaluate safety and efficacy parameters in each cohort.
Scheduled assessments (including TSB) occurred before treatment and at 0.75 and 2 hours (or 1.5 and 3 hours, depending on PK blood sampling assignment); 6, 12, 24, 48, and 72 hours; and 14 and 30 (except TSB) days after treatment or early termination.
The primary efficacy endpoint was the change in adjusted TSB from baseline to 48 hours after treatment. The adjusted TSB was a calculation of the percentage variance of the TSB level from the age specific threshold for PT initiation per the AAP Guidelines, i.e., an indication of the distance below the PT threshold by time.
The Secondary Efficacy Endpoints were the change from baseline in unadjusted TSB at 48 hours after treatment, change from baseline in adjusted and unadjusted TSB at various other time points after treatment, percent change from baseline in unadjusted TSB, proportion of subjects who require PT/exchange transfusion (ET), time to PT/ET, duration of PT and time to hospital discharge.
Intent-to-treat population (ITT): Defined as all subjects who were randomly assigned treatment in the clinical study, had received IMP, and had at least 1 post baseline TSB measurement during the first 48 hours after treatment. Subjects were summarized based on randomized treatment.
Analysis of Efficacy Parameters: The primary efficacy analysis applied the analysis of covariance (ANCOVA) method to determine if there was a significant difference between treatment groups in change in adjusted TSB levels from baseline to 48 hours post baseline after controlling for the effects of gestational age and adjusted baseline TSB levels. If assumptions of ANCOVA appeared to be violated, a Wilcoxon rank-sum test could be performed instead. Time-to-event variables were analyzed using the Kaplan-Meier method, and Kaplan-Meier survival curves were presented.

[1] = 3.0 mg/kg IM, 72 h, LOCF, ANCOVA
[2] = 3.0 mg/kg IM, 14 days/early termination, LOCF
[3] = 3.0 mg/kg IM, 14 days/early termination, LOCF, ANCOVA
[4] = 3.0 mg/kg versus the placebo group, 48 Hours/Early termination, PP Population, ANCOVA
[5] = 3.0 mg/kg, 48 Hours/Early termination, PP Population, LOCF
[6] = 3.0 mg/kg, 6 hrs, unadjusted TSB, ITT Population
[7] = 3.0 mg/kg, 12 hrs, unadjusted TSB, ITT Population
[8] = 3.0 mg/kg, 24 hrs, unadjusted TSB, ITT Population
[9] = 3.0 mg/kg, 48 hrs, unadjusted TSB, ITT Population
[10] = 3.0 mg/kg, baseline, PP Population
[11] = 3.0 mg/kg, baseline, unadjusted TSB, ITT Population
[12] = 4.5 mg/kg IM, 6 h, LOCF, ANCOVA
[13] = 4.5 mg/kg IM, 12 h, LOCF, ANCOVA

Substance: tin IV mesoporphyrin IX dichloride [Stannsoporfin]
- change from baseline in unadjusted TSB, Mean (SD) (3.0 mg/kg IM, 72 h, LOCF): 1.66 (3.496) mg/dL
- change from baseline in unadjusted TSB, Median (3.0 mg/kg IM, 72 h, LOCF): 2.45 mg/dL
- unadjusted TSB, Mean (SD) (3.0 mg/kg IM, 72 h, LOCF): 9.87 (3.681) mg/dL
- unadjusted TSB, Median (3.0 mg/kg IM, 72 h, LOCF): 10.70 mg/dL
- change from baseline in adjusted TSB, LS mean (SEM) [1]: −19.28 (6.633) %
- change from baseline in adjusted TSB, LS mean difference versus placebo [1]: −14.53%
- change from baseline in unadjusted TSB, LS Mean (SEM) [1]: 2.77 (1.133) mg/dL
- change from baseline in unadjusted TSB, LS Mean Difference versus placebo [1]: -2.18 mg/dL
- change from baseline in unadjusted TSB, Mean (SD) [2]: −2.98 (5.389) mg/dL
- change from baseline in unadjusted TSB, Median [2]: -4.80 mg/dL
- unadjusted TSB, Mean (SD) [2]: 5.23 (5.123) mg/dL
- unadjusted TSB, Median [2]: 3.40 mg/dL
- change from baseline in unadjusted TSB, LS Mean (SEM) [3]: −2.42 (1.324) mg/dL
- change from baseline in unadjusted TSB, LS Mean Difference versus placebo [3]: -0.12 mg/dL
- 48 Hours/Early termination change from baseline in unadjusted TSB, LS mean difference [4]: -1.74 mg/dL
- P-value of LS mean difference, change from baseline in unadjusted TSB [4]: 0.078
- 48 Hours/Early termination change from baseline in unadjusted TSB, Max [5]: 5.4 mg/dL
- 48 Hours/Early termination change from baseline in unadjusted TSB, Mean (SD) [5]: 2.20 (2.928) mg/dL
- 48 Hours/Early termination change from baseline in unadjusted TSB, Median [5]: 2.87 mg/dL
- 48 Hours/Early termination change from baseline in unadjusted TSB, Min [5]: -3.4 mg/dL
- 48 Hours/Early termination unadjusted TSB, Max [5]: 13.8 mg/dL
- 48 Hours/Early termination unadjusted TSB, Mean (SD) [5]: 10.53 (2.911) mg/dL
- 48 Hours/Early termination unadjusted TSB, Median [5]: 11.60 mg/dL
- 48 Hours/Early termination unadjusted TSB, Min [5]: 4.2 mg/dL
- 48 Hours/Early termination change from baseline in unadjusted TSB, LS mean (SEM) (3.0 mg/kg, 48 Hours/Early termination, PP Population, LOCF, ANCOVA): 2.20 (0.881) mg/dL
- 6 hrs Percent Change from Baseline in TSB, Max [6]: 59.0%
- 6 hrs Percent Change from Baseline in TSB, Mean (SD) [6]: 19.54 (12.055) %
- 6 hrs Percent Change from Baseline in TSB, Min [6]: −2.6%
- 6 hrs TSB, Max [6]: 12.3 mg/dL
- 6 hrs TSB, Mean (SD) [6]: 9.74 (1.730) mg/dL
- 6 hrs TSB, Min [6]: 6.8 mg/dL
- 12 hrs Percent Change from Baseline in TSB, Max [7]: 73.8%
- 12 hrs Percent Change from Baseline in TSB, Mean (SD) [7]: 26.17 (15.650) %
- 12 hrs Percent Change from Baseline in TSB, Min [7]: 0.0%
- 12 hrs TSB, Max [7]: 12.2 mg/dL
- 12 hrs TSB, Mean (SD) [7]: 10.26 (1.748) mg/dL
- 12 hrs TSB, Min [7]: 6.9 mg/dL
- 24 hrs Percent Change from Baseline in TSB, Max [8]: 86.9%
- 24 hrs Percent Change from Baseline in TSB, Mean (SD) [8]: 24.84 (23.900) %
- 24 hrs Percent Change from Baseline in TSB, Median [8]: 23.00%
- 24 hrs Percent Change from Baseline in TSB, Min [8]: −11.8%
- 24 hrs TSB, Max [8]: 11.9 mg/dL
- 24 hrs TSB, Mean (SD) [8]: 10.06 (1.757) mg/dL
- 24 hrs TSB, Min [8]: 6.7 mg/dL
- 48 hrs Percent Change from Baseline in TSB, Max [9]: 88.5%
- 48 hrs Percent Change from Baseline in TSB, Mean (SD) [9]: 31.84 (36.062) %
- 48 hrs Percent Change from Baseline in TSB, Min [9]: −44.7%
- 48 hrs TSB, Max [9]: 14.1 mg/dL
- 48 hrs TSB, Mean (SD) [9]: 10.68 (2.956) mg/dL
- 48 hrs TSB, Min [9]: 4.2 mg/dL
- mean TSB levels (3.0 mg/kg, 14 days after treatment (text, not LOCF table)): 5.23 mg/dL
- Baseline unadjusted TSB, Max [10]: 10.4 mg/dL
- Baseline unadjusted TSB, Mean (SD) [10]: 8.33 (1.585) mg/dL
- Baseline unadjusted TSB, Median [10]: 8.90 mg/dL
- Baseline unadjusted TSB, Min [10]: 6.0 mg/dL
- Baseline TSB, Max [11]: 10.4 mg/dL
- Baseline TSB, Mean (SD) [11]: 8.21 (1.577) mg/dL
- Baseline TSB, Min [11]: 5.5 mg/dL
- Change from baseline of total serum bilirubin (6 hours, preliminary data): 1.69 ± 0.50
- Change from baseline of total serum bilirubin (24 hours, preliminary data): 0.93 ± 0.20
- Change from baseline of total serum bilirubin (48 hours, preliminary data): 0.80 ± 2.79
- total serum bilirubin (4.5 mg/kg IM (N = 5), 48 hours, treated per protocol, preliminary data): 9.88 ± 2.8
- adjusted TSB, Mean (SD) (4.5 mg/kg IM, 6 h, LOCF): −4.49 (11.322) %
- change from baseline in adjusted TSB, Mean (SD) (4.5 mg/kg IM, 6 h, LOCF): 4.70 (4.583) %
- change from baseline in adjusted TSB, Median (4.5 mg/kg IM, 6 h, LOCF): 4.10%
- change from baseline in unadjusted TSB, Mean (SD) (4.5 mg/kg IM, 6 h, LOCF): 1.69 (0.493) mg/dL
- change from baseline in unadjusted TSB, Median (4.5 mg/kg IM, 6 h, LOCF): 1.61 mg/dL
- unadjusted TSB, Mean (SD) (4.5 mg/kg IM, 6 h, LOCF): 11.27 (2.074) mg/dL
- unadjusted TSB, Median (4.5 mg/kg IM, 6 h, LOCF): 11.25 mg/dL
- change from baseline in adjusted TSB, LS mean (SEM) [12]: 4.03 (2.697) %
- change from baseline in adjusted TSB, LS mean difference versus placebo [12]: −0.35%
- change from baseline in unadjusted TSB, LS Mean (SEM) [12]: 1.62 (0.293) mg/dL
- change from baseline in unadjusted TSB, LS Mean Difference versus placebo [12]: 0.03 mg/dL
- change from baseline in adjusted TSB, LS mean difference versus placebo, MMRM (4.5 mg/kg IM, 6 h): −2.38%
- change from baseline in adjusted TSB, LS means (SEM), MMRM (4.5 mg/kg IM, 6 h): 2.00 (2.825) %
- adjusted TSB, Mean (SD) (4.5 mg/kg IM, 12 h, LOCF): −7.80 (9.906) %
- change from baseline in adjusted TSB, Mean (SD) (4.5 mg/kg IM, 12 h, LOCF): 1.39 (6.394) %
- change from baseline in adjusted TSB, Median (4.5 mg/kg IM, 12 h, LOCF): −0.70%
- change from baseline in unadjusted TSB, Mean (SD) (4.5 mg/kg IM, 12 h, LOCF): 1.89 (0.421) mg/dL
- change from baseline in unadjusted TSB, Median (4.5 mg/kg IM, 12 h, LOCF): 1.92 mg/dL
- unadjusted TSB, Mean (SD) (4.5 mg/kg IM, 12 h, LOCF): 11.48 (1.924) mg/dL
- unadjusted TSB, Median (4.5 mg/kg IM, 12 h, LOCF): 11.27 mg/dL
- change from baseline in adjusted TSB, LS mean (SEM) [13]: 2.17 (3.960) %
- change from baseline in adjusted TSB, LS mean difference versus placebo [13]: −4.96%
- change from baseline in unadjusted TSB, LS Mean (SEM) [13]: 1.95 (0.453) mg/dL
- change from baseline in unadjusted TSB, LS Mean Difference versus placebo [13]: -0.65 mg/dL
- change from baseline in adjusted TSB, LS mean difference versus placebo, MMRM (4.5 mg/kg IM, 12 h): −8.38%
- change from baseline in adjusted TSB, LS means (SEM), MMRM (4.5 mg/kg IM, 12 h): −2.41 (3.856) %
- adjusted TSB, Mean (SD) (4.5 mg/kg IM, 24 h, LOCF): −24.66 (15.145) %
- change from baseline in adjusted TSB, Mean (SD) (4.5 mg/kg IM, 24 h, LOCF): −15.48 (18.694) %
